Measurements: ChEMBL document CHEMBL1201862, “PubChem BioAssay data set” (2004)
Activity calls are given as the source filed them.

Tests used:
[1] = molecular target: T1, Heat shock factor protein 1 (Mus musculus, UniProt P38532); test: decrease of HSF1-responsive luciferase luminescence – cell-based, NIH3T3, dose retest, confirmation (AID 2382); format: functional;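 note: NIH3T3 fibroblasts with HSF1-driven luciferase reporter stressed by proteasome inhibitor MG132; luminescence from HSF1-driven luciferase expression after 8 hours of MG132 stress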
T1 sequence (P38532 whole entry): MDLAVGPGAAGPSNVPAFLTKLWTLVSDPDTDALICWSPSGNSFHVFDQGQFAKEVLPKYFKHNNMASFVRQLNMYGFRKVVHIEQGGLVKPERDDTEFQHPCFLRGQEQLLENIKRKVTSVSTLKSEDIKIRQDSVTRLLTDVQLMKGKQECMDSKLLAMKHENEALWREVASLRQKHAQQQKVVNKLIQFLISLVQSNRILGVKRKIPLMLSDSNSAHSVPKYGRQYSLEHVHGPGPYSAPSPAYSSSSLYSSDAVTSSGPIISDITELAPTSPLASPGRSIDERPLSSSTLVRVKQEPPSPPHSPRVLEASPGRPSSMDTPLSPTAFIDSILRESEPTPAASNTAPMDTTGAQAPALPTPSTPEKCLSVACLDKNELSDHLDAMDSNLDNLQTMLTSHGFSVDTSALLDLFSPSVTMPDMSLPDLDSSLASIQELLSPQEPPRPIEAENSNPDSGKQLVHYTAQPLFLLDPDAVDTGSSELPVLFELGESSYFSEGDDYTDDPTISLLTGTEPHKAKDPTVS

[2] = molecular target: T2, Calpain-2 catalytic subunit (Sus scrofa, UniProt P43367); test: m-calpain protease blockers, concentration series – biochemical, fluorogenic peptide substrate, dose response (AID 1420); format: functional
T2 sequence (P43367 whole entry): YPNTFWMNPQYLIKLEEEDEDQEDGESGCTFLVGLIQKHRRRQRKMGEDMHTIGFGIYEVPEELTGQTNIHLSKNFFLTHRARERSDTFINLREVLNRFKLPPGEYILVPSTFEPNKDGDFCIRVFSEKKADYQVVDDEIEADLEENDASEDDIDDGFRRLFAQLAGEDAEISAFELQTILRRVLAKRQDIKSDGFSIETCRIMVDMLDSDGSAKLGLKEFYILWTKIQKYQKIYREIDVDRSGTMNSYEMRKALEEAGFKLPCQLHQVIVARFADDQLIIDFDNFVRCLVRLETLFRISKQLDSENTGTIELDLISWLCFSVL

[3] = molecular target: T3, Voltage-dependent T-type calcium channel subunit alpha-1H (Homo sapiens, UniProt O95180); format: functional
T3 sequence (O95180 whole entry): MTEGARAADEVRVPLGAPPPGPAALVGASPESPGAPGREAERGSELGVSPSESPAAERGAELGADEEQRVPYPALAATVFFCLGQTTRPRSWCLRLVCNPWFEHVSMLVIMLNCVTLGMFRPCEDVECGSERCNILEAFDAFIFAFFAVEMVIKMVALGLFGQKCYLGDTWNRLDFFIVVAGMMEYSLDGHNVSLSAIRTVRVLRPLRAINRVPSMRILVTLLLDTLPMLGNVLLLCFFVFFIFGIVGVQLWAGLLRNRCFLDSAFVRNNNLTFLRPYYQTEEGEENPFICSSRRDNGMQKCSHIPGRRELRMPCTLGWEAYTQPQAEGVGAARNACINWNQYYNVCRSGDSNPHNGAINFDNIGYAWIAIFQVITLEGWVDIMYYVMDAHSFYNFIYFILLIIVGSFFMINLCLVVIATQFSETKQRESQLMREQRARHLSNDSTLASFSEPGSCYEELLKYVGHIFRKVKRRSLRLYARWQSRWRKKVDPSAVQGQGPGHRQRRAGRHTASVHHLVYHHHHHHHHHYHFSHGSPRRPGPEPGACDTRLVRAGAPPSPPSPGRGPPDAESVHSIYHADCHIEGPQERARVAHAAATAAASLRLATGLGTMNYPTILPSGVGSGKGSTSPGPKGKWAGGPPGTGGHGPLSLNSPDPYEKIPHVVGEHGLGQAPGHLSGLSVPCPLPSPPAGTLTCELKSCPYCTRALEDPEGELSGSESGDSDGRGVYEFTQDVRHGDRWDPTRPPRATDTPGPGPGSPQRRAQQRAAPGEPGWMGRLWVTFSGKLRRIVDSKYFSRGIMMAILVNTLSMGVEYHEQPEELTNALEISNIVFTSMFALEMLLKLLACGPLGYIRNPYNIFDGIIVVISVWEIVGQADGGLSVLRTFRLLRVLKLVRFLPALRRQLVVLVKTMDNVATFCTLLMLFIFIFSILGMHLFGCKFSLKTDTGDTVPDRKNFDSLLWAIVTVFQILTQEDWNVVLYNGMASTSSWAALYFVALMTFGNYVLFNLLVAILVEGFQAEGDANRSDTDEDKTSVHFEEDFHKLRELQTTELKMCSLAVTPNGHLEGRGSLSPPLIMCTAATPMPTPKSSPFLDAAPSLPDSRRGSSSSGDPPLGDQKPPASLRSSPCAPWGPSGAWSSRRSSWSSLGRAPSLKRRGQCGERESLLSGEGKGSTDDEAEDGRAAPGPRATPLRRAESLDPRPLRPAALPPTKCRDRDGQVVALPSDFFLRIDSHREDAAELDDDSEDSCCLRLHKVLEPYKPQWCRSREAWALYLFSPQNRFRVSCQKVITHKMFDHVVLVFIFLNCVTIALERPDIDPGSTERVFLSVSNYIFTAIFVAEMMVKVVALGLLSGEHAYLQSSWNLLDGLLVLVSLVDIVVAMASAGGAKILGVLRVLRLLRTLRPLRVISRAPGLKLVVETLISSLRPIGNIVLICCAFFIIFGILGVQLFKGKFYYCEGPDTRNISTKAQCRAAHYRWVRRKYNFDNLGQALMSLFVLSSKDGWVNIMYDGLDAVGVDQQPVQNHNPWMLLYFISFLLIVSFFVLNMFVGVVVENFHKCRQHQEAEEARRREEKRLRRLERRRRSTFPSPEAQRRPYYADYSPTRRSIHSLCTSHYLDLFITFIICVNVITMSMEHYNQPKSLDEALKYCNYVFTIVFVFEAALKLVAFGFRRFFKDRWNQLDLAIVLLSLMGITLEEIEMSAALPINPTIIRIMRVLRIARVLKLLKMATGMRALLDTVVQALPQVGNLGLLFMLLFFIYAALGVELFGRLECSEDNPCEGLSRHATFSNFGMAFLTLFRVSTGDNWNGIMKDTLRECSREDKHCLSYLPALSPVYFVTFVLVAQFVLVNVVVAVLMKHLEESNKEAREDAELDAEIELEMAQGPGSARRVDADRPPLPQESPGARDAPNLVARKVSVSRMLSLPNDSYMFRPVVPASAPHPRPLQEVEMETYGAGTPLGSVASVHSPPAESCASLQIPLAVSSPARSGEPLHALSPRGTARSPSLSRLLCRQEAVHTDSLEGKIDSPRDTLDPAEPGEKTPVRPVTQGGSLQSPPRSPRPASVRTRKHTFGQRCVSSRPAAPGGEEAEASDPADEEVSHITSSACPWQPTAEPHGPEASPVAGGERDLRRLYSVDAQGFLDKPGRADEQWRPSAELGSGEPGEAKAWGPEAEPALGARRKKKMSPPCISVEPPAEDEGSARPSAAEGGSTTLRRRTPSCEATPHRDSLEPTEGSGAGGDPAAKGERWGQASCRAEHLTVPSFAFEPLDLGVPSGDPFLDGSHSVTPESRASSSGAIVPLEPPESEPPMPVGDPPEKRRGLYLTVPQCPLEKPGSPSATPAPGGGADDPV

[4] = molecular target: T3, Voltage-dependent T-type calcium channel subunit alpha-1H; test: Inhibitors of T-Type Calcium Channels. [Related pubchem assays (depositor defined):AID449739, AID463087, AID489005, AID493041, AID504579, AID504584, AID504619, AID504628]; format: functional
[5] = molecular target: T4, Alkaline phosphatase, tissue-nonspecific isozyme (Homo sapiens, UniProt P05186)
T4 sequence (P05186 whole entry): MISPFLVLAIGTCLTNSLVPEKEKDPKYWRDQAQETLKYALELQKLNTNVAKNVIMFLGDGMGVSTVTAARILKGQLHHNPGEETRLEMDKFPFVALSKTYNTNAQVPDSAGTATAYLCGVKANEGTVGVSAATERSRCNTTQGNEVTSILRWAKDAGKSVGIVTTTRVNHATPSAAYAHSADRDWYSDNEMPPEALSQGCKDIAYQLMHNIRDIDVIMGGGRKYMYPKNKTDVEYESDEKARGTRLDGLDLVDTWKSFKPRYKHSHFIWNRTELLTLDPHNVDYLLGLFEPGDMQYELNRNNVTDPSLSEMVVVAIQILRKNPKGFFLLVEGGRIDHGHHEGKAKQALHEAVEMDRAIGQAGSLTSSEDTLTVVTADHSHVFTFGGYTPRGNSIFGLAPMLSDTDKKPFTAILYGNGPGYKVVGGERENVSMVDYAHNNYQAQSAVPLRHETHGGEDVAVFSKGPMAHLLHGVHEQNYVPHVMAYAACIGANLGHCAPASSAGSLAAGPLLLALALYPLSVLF

Cytochrome P450 2C19 = Cytochrome P450 2C19 (Homo sapiens, UniProt P33261); test: Cytochrome panel assay with activity outcomes. Panel member name: p450-cyp2c19 Compounds with AC50 equal or less than 10 uM are considered active; format: functional; details: read-out: AC50
Sequence of Cytochrome P450 2C19 (P33261 whole entry): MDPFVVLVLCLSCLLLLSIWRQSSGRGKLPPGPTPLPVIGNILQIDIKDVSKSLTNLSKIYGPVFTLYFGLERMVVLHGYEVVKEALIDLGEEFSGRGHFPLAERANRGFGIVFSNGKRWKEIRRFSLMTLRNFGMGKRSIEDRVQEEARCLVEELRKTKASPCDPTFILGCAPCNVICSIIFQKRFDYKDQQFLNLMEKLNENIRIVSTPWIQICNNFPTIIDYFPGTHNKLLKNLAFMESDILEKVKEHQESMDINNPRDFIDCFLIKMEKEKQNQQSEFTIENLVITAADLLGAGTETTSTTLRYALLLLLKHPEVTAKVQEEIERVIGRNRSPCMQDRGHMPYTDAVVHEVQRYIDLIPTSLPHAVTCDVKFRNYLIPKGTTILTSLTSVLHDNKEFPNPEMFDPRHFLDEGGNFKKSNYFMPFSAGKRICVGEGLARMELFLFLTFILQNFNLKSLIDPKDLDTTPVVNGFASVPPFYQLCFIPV

Cytochrome P450 2D6 = Cytochrome P450 2D6 (Homo sapiens, UniProt P10635);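 note: CYP2D6 member of a cytochrome P450 panel assay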
Cytochrome P450 1A2 = molecular target: T5, Cytochrome P450 1A2 (Homo sapiens, UniProt P05177);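 note: PubChem cytochrome P450 panel assay, CYP1A2 panel member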
T5 sequence (P05177 whole entry): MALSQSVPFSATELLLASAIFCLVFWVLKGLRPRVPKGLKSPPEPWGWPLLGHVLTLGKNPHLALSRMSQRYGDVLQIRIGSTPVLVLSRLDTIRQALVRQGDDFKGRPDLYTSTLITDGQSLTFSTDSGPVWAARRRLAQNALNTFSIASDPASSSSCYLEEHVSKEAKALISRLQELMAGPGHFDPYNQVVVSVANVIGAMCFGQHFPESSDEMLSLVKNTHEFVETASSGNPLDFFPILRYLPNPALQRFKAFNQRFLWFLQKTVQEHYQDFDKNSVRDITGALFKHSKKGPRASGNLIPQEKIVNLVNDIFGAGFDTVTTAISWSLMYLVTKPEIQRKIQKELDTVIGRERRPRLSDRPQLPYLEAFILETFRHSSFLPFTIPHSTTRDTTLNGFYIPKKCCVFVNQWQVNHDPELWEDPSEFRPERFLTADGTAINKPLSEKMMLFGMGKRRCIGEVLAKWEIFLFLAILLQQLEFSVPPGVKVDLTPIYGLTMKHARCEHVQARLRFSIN

Cytochrome P450 2C9 = Cytochrome P450 2C9 (Homo sapiens, UniProt P11712)
Sequence of Cytochrome P450 2C9 (P11712 whole entry): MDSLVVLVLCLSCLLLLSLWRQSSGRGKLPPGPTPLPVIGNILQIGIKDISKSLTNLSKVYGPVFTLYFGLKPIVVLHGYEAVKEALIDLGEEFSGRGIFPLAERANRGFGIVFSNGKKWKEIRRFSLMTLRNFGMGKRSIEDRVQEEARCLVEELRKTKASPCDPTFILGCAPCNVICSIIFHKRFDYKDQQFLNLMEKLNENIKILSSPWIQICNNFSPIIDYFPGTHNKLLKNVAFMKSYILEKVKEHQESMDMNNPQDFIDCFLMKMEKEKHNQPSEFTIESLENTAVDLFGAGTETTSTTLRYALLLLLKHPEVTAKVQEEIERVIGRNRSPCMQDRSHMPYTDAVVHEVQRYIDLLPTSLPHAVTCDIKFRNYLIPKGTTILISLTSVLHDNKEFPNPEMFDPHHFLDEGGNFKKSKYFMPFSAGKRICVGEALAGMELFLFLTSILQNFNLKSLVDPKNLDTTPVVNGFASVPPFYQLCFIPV

Aspartyl aminopeptidase = Aspartyl aminopeptidase (Plasmodium falciparum 3D7, UniProt Q8I2J3)
Sequence of Aspartyl aminopeptidase (Q8I2J3 whole entry): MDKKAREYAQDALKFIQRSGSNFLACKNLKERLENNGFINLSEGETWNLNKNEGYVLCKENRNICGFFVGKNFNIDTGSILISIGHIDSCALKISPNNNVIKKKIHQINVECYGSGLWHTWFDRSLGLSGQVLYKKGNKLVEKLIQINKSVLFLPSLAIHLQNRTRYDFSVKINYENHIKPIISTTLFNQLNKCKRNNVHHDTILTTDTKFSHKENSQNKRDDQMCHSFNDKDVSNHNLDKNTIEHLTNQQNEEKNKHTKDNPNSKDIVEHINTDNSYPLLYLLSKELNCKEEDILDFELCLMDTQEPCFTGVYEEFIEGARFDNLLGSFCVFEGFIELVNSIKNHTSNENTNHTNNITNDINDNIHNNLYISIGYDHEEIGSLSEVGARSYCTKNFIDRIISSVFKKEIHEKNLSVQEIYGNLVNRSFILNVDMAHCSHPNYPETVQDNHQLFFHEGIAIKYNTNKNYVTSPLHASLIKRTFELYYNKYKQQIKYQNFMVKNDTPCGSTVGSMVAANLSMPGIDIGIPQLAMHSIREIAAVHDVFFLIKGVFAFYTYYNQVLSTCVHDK

Procathepsin L = Procathepsin L (Homo sapiens, UniProt P07711)
Sequence of Procathepsin L (P07711 whole entry): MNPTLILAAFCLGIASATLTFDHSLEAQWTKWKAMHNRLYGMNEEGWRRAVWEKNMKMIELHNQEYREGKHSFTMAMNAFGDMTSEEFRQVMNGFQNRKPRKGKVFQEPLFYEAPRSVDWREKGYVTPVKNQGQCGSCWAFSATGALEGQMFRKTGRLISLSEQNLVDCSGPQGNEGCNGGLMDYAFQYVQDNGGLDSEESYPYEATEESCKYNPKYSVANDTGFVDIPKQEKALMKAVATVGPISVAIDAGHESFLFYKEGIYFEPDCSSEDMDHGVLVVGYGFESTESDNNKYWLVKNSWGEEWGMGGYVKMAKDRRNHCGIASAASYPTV

[6] = molecular target: Lysosomal acid glucosylceramidase (Homo sapiens, UniProt P04062); test: Dose response cell-based high throughput screening assay to identify enhancers of beta-glucosidase activity. [Related pubchem assays: 784 ]; format: functional
Sequence of Lysosomal acid glucosylceramidase (P04062 whole entry): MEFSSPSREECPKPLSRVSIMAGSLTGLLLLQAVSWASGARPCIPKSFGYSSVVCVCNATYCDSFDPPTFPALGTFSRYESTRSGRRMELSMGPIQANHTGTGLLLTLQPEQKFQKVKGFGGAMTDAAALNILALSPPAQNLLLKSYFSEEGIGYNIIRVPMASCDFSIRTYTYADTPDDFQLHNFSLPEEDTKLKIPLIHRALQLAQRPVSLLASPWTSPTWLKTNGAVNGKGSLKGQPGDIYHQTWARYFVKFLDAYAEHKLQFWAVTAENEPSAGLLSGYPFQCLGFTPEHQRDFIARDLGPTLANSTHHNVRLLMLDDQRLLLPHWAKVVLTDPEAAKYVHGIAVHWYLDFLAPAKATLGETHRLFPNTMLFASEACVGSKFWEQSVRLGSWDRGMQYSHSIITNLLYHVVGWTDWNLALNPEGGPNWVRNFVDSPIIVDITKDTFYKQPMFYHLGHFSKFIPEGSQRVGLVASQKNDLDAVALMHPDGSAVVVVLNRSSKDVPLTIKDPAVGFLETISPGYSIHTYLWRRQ

[7] = molecular target: Peroxisome proliferator-activated receptor gamma/Nuclear receptor coactivator 2 (Homo sapiens, UniProt P37231); format: functional;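 note: agonist potency for raising coactivator recruitment to the receptor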
[8] = molecular target: Peroxisome proliferator-activated receptor gamma/Nuclear receptor coactivator 1 (Homo sapiens, UniProt P37231); format: functional;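 note: agonist potency as compounds enhance coactivator SRC-1 recruitment to PPARgamma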
[9] = molecular target: Peroxisome proliferator-activated receptor gamma/Nuclear receptor coactivator 3 (Homo sapiens, UniProt P37231); format: functional;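 note: agonist potency for raising coactivator recruitment to the receptor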
Vero [10] = test: Vero cell viability after compound exposure – synthesized analogs, set II, cytotoxicity control for West Nile virus antiviral project, SAR follow-up (AID 2402); format: functional; details: Chlorocebus sabaeus
Vero [11] = test: host cell viability loss, Vero E6 – synthesized analogs, cytotoxicity control for West Nile virus antiviral project, SAR follow-up (AID 2244); format: functional; details: Chlorocebus sabaeus
[12] = A Cell Based Secondary Assay To Explore Cytotoxicity of Compounds that Sensitize Mycobacterium Tuberculosis to Beta-Lactam Antibiotics.; format: functional
CHO-K1 = test: Counterscreen for antagonists of the orexin 1 receptor (OX1R; HCRTR1): Homogeneous time resolved fluorescence (HTRF)-based cell-based dose response assay to identify antagonists of the parental CHO-K1 cell line. [Related pubchem assays (depositor defined):AID434989, AID435008, AID463079, AID485270, AID492963, AID492964, AID492965, AID493232, AID504699, AID504701]; format: functional; details: Cricetulus griseus;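 note: potency for inhibition of ATP-stimulated IP1 production as antagonists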
[13] = Counterscreen for antagonists of the orexin 1 receptor (OX1R; HCRTR1): Fluorescence-based cell-based high throughput dose response assay to identify antagonists of the parental CHO cell line. [Related pubchem assays (depositor defined):AID434989, AID435008, AID463079, AID485270, AID492963, AID492964, AID492965, AID493232, AID504699, AID504701]; format: functional
[14] = molecular target: T6, Orexin/Hypocretin receptor type 1 (Homo sapiens, UniProt O43613); test: Homogeneous Time Resolved Fluorescence (HTRF)-based cell-based high throughput dose response assay for antagonists of the orexin 1 receptor (OX1R; HCRTR1). [Related pubchem assays (depositor defined):AID434989, AID435008, AID463079, AID485270, AID492963, AID492964, AID492965, AID493232, AID504717, AID504718]; format: functional
T6 sequence (O43613 whole entry): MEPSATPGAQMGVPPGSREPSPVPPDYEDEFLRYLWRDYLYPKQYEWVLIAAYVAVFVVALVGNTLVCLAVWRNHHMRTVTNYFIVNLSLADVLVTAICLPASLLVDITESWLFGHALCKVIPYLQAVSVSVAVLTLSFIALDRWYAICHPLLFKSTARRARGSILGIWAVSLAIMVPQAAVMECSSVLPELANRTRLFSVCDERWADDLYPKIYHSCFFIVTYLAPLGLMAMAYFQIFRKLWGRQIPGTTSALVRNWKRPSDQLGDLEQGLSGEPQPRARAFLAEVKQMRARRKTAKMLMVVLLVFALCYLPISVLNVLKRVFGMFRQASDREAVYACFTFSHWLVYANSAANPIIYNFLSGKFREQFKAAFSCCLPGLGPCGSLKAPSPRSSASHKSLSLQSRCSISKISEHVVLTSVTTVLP

[15] = molecular target: T6, Orexin/Hypocretin receptor type 1; test: Fluorescence-based cell-based high throughput dose response assay for antagonists of the orexin 1 receptor (OX1R; HCRTR1). [Related pubchem assays (depositor defined):AID434989, AID435008, AID463079, AID485270, AID492963, AID492964, AID492965, AID493232, AID504717, AID504718]; format: functional
Orexin receptor type 2 [16] = molecular target: T7, Orexin receptor type 2 (Homo sapiens, UniProt O43614); test: Counterscreen assay for antagonists of the orexin 1 receptor (OX1R; HCRTR1): Fluorescence-based cell-based dose response assay for antagonists of the orexin 2 receptor (OX2R; HCRTR2), run by assay provider.; format: functional
T7 sequence (O43614 whole entry): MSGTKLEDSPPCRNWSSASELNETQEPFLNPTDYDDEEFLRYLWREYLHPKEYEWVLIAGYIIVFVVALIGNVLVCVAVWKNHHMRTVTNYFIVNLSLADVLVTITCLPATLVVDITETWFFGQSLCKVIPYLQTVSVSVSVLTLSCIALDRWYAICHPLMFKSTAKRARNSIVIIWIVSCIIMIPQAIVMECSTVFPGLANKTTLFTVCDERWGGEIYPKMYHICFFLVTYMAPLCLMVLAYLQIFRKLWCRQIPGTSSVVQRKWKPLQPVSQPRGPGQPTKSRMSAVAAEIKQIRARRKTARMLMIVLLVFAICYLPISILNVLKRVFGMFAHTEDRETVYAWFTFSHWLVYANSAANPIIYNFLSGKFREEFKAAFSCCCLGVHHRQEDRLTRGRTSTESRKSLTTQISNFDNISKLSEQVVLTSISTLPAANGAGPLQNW

Orexin receptor type 2 [17] = molecular target: T7, Orexin receptor type 2; test: Counterscreen assay for antagonists of the orexin 1 receptor (OX1R; HCRTR1): Homogeneous Time Resolved Fluorescence (HTRF)-based cell-based dose response assay for antagonists of the orexin 2 receptor (OX2R; HCRTR2), run by assay provider.; format: functional
[18] = molecular target: Intestinal-type alkaline phosphatase (Homo sapiens, UniProt P09923); test: Dose Response confirmation of uHTS hits from a small molecule inhibitors of human intestinal alkaline phosphatase via a luminescent assay. [Related pubchem assays (depositor defined):AID2544, AID2574]; format: functional

SMILES: O=C(CCCCCCN1C(=O)c2ccccc2C1=O)N1CCC(c2ccccc2)C1 (stereo not drawn)
- EC50 [1]: > 195 µM (not active)
- IC50 [2]: 7.71 µM (active)
- EC50 [3]: 0.624 µM (active)
- EC50 [4]: 1.81 µM (active)

SMILES: Cc1ccc(Cl)cc1N1CCN(C(=O)C2(S(=O)(=O)c3ccc(Cl)cc3)CC2)CC1
- EC50 [3]: 0.928 µM (active)
- EC50 [4]: 5.26 µM (active)

SMILES: COc1ccc2nc(C)cc(SCC(=O)NNC(=O)COc3ccccc3)c2c1
- EC50 [5]: 79.5 µM (not active)
- AC50 (Cytochrome P450 2C19): 3.55 µM (inconclusive)
- AC50 (Cytochrome P450 2D6): 10 µM (inconclusive)
- AC50 (Cytochrome P450 1A2): 10 µM (inconclusive)
- AC50 (Cytochrome P450 2C9): 10 µM (inconclusive)

SMILES: Cc1c(Cl)cccc1NC(=O)Nn1cnnc1
- IC50 (Aspartyl aminopeptidase): 1.87 µM (active)
- IC50 (Procathepsin L): > 59.6 µM (not active)

SMILES: COc1cccc(C(=O)NC(=S)Nn2cnnc2)c1OC
- IC50 (Aspartyl aminopeptidase): 2.08 µM (active)
- IC50 (Procathepsin L): > 59.6 µM (not active)

SMILES: COc1ccc2c(c1)-c1ccccc1S(=O)(=O)N2C(C)=O
- EC50 [6]: > 50 µM (not active)
- AC50 (Cytochrome P450 2C19): 25.1 µM (inconclusive)
- AC50 (Cytochrome P450 2C9): 12.6 µM (inconclusive)

SMILES: COC(=O)CN1C(=O)C2(OCCCO2)c2cc(Br)ccc21
- EC50 [6]: > 10 µM (not active)

SMILES: COc1ccc2nc(C)cc(SCC(=O)Nc3c(C)cccc3C)c2c1
- EC50 [7]: > 79.4 µM (not active)
- EC50 [8]: > 79.4 µM (not active)
- EC50 [9]: > 79.4 µM (not active)
- EC50 [5]: > 100 µM (not active)

SMILES: COc1ccc(-c2csc(N(Cc3ccccc3)C(=O)c3ccccc3Cl)n2)cc1
- CC50 (Vero [10]): > 100 µM (active)
- CC50 (Vero [11]): > 40 µM (active)

SMILES: CCn1c2ccccc2c2cc(NC(=O)c3cccc(OC)c3OC)ccc21
- CC50 [12]: > 40 µM (active)
- IC50 (CHO-K1): > 66.2 µM (inactive)
- IC50 [13]: > 49.8 µM (inactive)
- IC50 [14]: 1.7 µM (active)
- IC50 [15]: 3.08 µM (active)
- IC50 (Orexin receptor type 2 [16]): > 88.8 µM (inactive)
- IC50 (Orexin receptor type 2 [17]): > 50 µM (inactive)

SMILES: CC(/C=N/NC(=O)CCn1nnc2ccccc21)=C\c1ccccc1
- IC50 [18]: > 100 µM (inactive)
